The results in this text go back to PubChem BioAssay AID1745864.

The experiment has as its target Excitatory amino acid transporter 1 (Homo sapiens) (UniProt P43003). The experiment in a line: SLC1A3 amino acid substrate potency, dose response, HEK293 JumpIn overexpressing cells, membrane potential dye (AID 1745864). Conditions: HEK293 JumpIn SLC1A3 OE, FLIPR membrane potential.

Excitatory amino acid transporter 1 (Homo sapiens), sequence (P43003 whole entry, looked up): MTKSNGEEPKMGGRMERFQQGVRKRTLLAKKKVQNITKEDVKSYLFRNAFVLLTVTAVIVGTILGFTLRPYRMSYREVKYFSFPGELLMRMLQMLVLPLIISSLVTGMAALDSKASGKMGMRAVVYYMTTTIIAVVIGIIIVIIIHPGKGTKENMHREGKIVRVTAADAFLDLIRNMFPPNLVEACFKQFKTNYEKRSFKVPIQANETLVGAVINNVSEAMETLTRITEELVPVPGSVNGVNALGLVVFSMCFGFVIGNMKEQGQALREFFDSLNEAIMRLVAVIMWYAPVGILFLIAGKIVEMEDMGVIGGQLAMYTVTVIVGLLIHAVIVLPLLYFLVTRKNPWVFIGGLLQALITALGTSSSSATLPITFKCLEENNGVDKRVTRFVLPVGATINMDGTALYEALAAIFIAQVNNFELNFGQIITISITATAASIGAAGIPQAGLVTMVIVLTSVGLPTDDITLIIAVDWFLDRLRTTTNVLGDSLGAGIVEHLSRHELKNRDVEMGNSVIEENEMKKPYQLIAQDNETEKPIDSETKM

On to `N[C@@H](CS)C(=O)O`, for which the concentration giving a half-maximal response (EC50) (as a rule, the concentration needed to bring the measured effect to its halfway point) was 376 µM.
